Like-named read-outs stand apart in the source and are kept apart here.
Molecular target: T1, PRMT5/MEP50 (Homo sapiens, UniProt O14744)
T1 construct: Expressed full-length human Flag-PRMT5/6His-MeP50 protein complex was purified; made in house; host or cells: Spodoptera frugiperda (SF9) insect cells, baculovirus (pDEST8)
Assay: PRMT5 Biochemical Assay (PRMT5/MEP50 enzyme assay on peptide substrate, 3H-SAM Flashplate)
Conditions: read-out: Biochemical IC50

[1] = Table A-2, PRMT5/MEP50 4 nM, 3H-SAM 75 nM, peptide 40 nM

T1 sequence (O14744 with tags, fused parts or gaps): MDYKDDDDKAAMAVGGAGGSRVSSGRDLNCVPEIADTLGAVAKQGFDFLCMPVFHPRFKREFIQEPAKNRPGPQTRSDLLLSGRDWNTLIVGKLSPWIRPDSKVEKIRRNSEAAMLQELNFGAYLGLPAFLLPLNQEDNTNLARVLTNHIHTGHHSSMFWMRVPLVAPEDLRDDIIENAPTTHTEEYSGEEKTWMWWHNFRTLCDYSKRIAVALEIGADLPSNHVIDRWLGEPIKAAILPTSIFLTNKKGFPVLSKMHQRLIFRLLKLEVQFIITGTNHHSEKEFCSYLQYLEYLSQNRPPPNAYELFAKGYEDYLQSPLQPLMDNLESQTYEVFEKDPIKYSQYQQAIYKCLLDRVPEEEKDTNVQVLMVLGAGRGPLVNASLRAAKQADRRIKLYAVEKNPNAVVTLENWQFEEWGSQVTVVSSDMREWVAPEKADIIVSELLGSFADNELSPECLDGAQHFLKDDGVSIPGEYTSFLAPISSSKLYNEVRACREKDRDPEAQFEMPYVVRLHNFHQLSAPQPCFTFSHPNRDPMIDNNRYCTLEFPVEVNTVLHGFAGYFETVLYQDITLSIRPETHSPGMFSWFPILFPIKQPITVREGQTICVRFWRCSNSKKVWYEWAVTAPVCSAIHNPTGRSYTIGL
T1 sequence (Q9BQA1 with tags, fused parts or gaps partner limits assumed): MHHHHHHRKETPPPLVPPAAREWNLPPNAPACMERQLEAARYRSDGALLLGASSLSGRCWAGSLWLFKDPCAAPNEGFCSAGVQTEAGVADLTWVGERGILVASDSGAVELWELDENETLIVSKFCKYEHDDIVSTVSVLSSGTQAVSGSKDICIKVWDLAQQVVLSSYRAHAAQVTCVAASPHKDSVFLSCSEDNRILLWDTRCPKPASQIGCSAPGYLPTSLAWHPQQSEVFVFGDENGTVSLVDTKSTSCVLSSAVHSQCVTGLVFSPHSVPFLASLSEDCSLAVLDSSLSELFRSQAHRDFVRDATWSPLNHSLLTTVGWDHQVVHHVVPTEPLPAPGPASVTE

IC50 (Table D-2) [nM] | IC50 [1] [nM] | Structure (SMILES)
101 to 1000 |  | O=C(c1cccc(-c2cccc(OCC(O)CN3CCc4ccccc4C3)c2)c1)N1CCOCC1 (centres unmarked) [Compound D126]
< 100 |  | CN(CC(O)CN1CCc2ccccc2C1)c1cccc(CNC2CCOCC2)c1 (centres unmarked) [Compound D116]
 | < 100 | CN1CCOc2cccc(OCC(=O)NCC(O)CN3CCc4ccccc4C3)c21 (centres unmarked) [Compound A81]
1000 to 10000 |  | Cn1ccc(C(=O)Nc2cccc(OCC(O)CN3CCc4ccccc4C3)c2)n1 (centres unmarked) [Compound D162]
< 100 |  | OC(COc1cccc(-c2ccc3ncn(Cc4ccccc4)c3c2)c1)CN1CCc2ccccc2C1 (centres unmarked) [Compound D105]
101 to 1000 |  | Cn1ncc2ccc(-c3cc(NCC(O)CN4CCc5ccccc5C4)ncn3)cc21 (centres unmarked) [Compound D205]
101 to 1000 |  | N#Cc1cccc(-c2cccc(OCC(O)CN3CCc4ccccc4C3)c2)c1 (centres unmarked) [Compound D172]
101 to 1000 |  | CC(=O)c1ccc(-c2cccc(OCC(O)CN3CCc4ccccc4C3)c2)cc1 (centres unmarked) [Compound D137]
 | < 100 | CC(=O)N1CCN(c2ccccc2OCC(=O)NCC(O)CN2CCc3ccccc3C2)CC1 (centres unmarked) [Compound A90]
101 to 1000 |  | Cc1ccncc1-c1cccc(OCC(O)CN2CCc3ccccc3C2)c1 (centres unmarked) [Compound D113]
1000 to 10000 |  | CNC(=O)c1cncc(-c2cccc(OCC(O)CN3CCc4ccccc4C3)c2)c1 (centres unmarked) [Compound D182]
 | 101 to 1000 | O=C(COc1cccc(C(=O)N2CCOCC2)c1)NCC(O)CN1CCc2ccccc2C1 (centres unmarked) [Compound A83]
101 to 1000 |  | Cn1cnc2ccc(-c3cncc(NCC(O)CN4CCc5ccccc5C4)n3)cc21 (centres unmarked) [Compound D121]
101 to 1000 |  | Cn1cnc2ccc(-c3cc(NCC(O)CN4CCc5ccccc5C4)ncn3)cc21 (centres unmarked) [Compound D207]
< 100 |  | Cn1cnc2ccc(-c3cncc(NCC(O)CN4CCc5ccccc5C4)c3)cc21 (centres unmarked) [Compound D199]
101 to 1000 |  | CN1CCN(c2ccc(-c3cccc(OCC(O)CN4CCc5ccccc5C4)c3)cn2)CC1 (centres unmarked) [Compound D149]
101 to 1000 |  | CS(=O)(=O)c1cccc(-c2cccc(OCC(O)CN3CCc4ccccc4C3)c2)c1 (centres unmarked) [Compound D130]
101 to 1000 |  | CC(C)Oc1ccc(F)c(-c2cccc(OCC(O)CN3CCc4ccccc4C3)c2)c1 (centres unmarked) [Compound D201]
1000 to 10000 |  | O=C(Nc1cccc(OCC(O)CN2CCc3ccccc3C2)c1)c1cncnc1 (centres unmarked) [Compound D161]
< 100 |  | Cn1ccc2ccc(-c3cccc(OCC(O)CN4CCc5ccccc5C4)c3)nc21 (centres unmarked) [Compound D176]
101 to 1000 |  | Cn1ccc2ccc(-c3cccc(OCC(O)CN4CCc5ccccc5C4)c3)cc21 (centres unmarked) [Compound D147]
101 to 1000 |  | COC(=O)c1cccc(-c2cccc(OCC(O)CN3CCc4ccccc4C3)c2)c1 (centres unmarked) [Compound D135]
< 100 |  | Cn1cnc2ccc(-c3cccc(OCC(O)CN4CCc5ccccc5C4)c3)nc21 (centres unmarked) [Compound D189]
101 to 1000 |  | O=C1COc2ccc(-c3cccc(OCC(O)CN4CCc5ccccc5C4)c3)cc2N1 (centres unmarked) [Compound D156]
101 to 1000 |  | O=C(Nc1cccc(OCC(O)CN2CCc3ccccc3C2)c1)c1cnccn1 (centres unmarked) [Compound D145]

IC50 (Table D-2) [nM] | IC50 [1] [nM] | Structure (SMILES)
101 to 1000 |  | OC(COc1cccc(-c2ccc3ncn(-c4ccccc4)c3c2)c1)CN1CCc2ccccc2C1 (centres unmarked) [Compound D104]
 | < 100 | CN1CCN(c2ccccc2OCC(=O)NC[C@H](O)CN2CCc3ccccc3C2)CC1 [Compound A84]
101 to 1000 |  | Cc1ccc(F)c(-c2cccc(OCC(O)CN3CCc4ccccc4C3)c2)c1 (centres unmarked) [Compound D138]
101 to 1000 |  | O=C1NCc2ccc(-c3cccc(OCC(O)CN4CCc5ccccc5C4)c3)cc21 (centres unmarked) [Compound D148]
 | < 100 | O=C(COc1cccc2c1CCNC2)NCC(O)CN1CCc2ccccc2C1 (centres unmarked) [Compound A91]
101 to 1000 |  | Cn1ncc2ccc(-c3cc(COCC(O)CN4CCc5ccccc5C4)on3)cc21 (centres unmarked) [Compound D136]
101 to 1000 |  | CC(C)(C)OCc1cccc(-c2cccc(OCC(O)CN3CCc4ccccc4C3)c2)c1 (centres unmarked) [Compound D150]
 | < 100 | O=C(COc1cccc(CN2CCOCC2)c1)NCC(O)CN1CCc2ccccc2C1 (centres unmarked) [Compound A75]
101 to 1000 |  | OC(COc1cccc(-c2ccccc2Oc2ccccc2)c1)CN1CCc2ccccc2C1 (centres unmarked) [Compound D167]
 | < 100 | O=C(COc1ccccc1N1CCNCC1)NCC(O)CN1CCc2ccccc2C1 (centres unmarked) [Compound A79]
 | < 100 | O=C(COc1ccc2c(cnn2C2CCNC2)c1)NCC(O)CN1CCc2ccccc2C1 (centres unmarked) [Compound A95]
101 to 1000 |  | OC(COc1cccc(-c2ccc(C(F)(F)F)cc2Cl)c1)CN1CCc2ccccc2C1 (centres unmarked) [Compound D127]
 | < 100 | O=C(COc1ccccc1N1CCOCC1)NC[C@H](O)CN1CCc2ccccc2C1 [Compound A77]
101 to 1000 |  | O=c1[nH]c2ccc(-c3cccc(OCC(O)CN4CCc5ccccc5C4)c3)cc2[nH]1 (centres unmarked) [Compound D109]
 | < 100 | O=C(COc1cccc(NC2CCOCC2)c1)NCC(O)CN1CCc2ccccc2C1 (centres unmarked) [Compound A93]
101 to 1000 |  | CN(C)c1ncc(-c2cccc(OCC(O)CN3CCc4ccccc4C3)c2)cn1 (centres unmarked) [Compound D125]
101 to 1000 |  | OC(COc1cccc(-c2ccccc2C(F)(F)F)c1)CN1CCc2ccccc2C1 (centres unmarked) [Compound D132]
101 to 1000 |  | CNC(=O)c1cccc(-c2cccc(OCC(O)CN3CCc4ccccc4C3)c2)c1 (centres unmarked) [Compound D186]
1000 to 10000 |  | COC(=O)c1cncc(-c2cccc(OCC(O)CN3CCc4ccccc4C3)c2)c1 (centres unmarked) [Compound D180]
< 100 |  | Cn1cnc2ccc(-c3cccc(NCC(O)CN4CCc5ccccc5C4)c3)cc21 (centres unmarked) [Compound D102]
101 to 1000 |  | CS(=O)(=O)c1ccccc1-c1cccc(OCC(O)CN2CCc3ccccc3C2)c1 (centres unmarked) [Compound D131]
101 to 1000 |  | CS(=O)(=O)Nc1ccc(-c2cccc(OCC(O)CN3CCc4ccccc4C3)c2)cc1 (centres unmarked) [Compound D129]
1000 to 10000 |  | Cn1cnc(C(=O)Nc2cccc(OCC(O)CN3CCc4ccccc4C3)c2)c1 (centres unmarked) [Compound D183]
1000 to 10000 |  | OC(COc1cccc(-c2ccc3cnoc3c2)c1)CN1CCc2ccccc2C1 (centres unmarked) [Compound D166]
< 100 |  | Cn1ncc2cc(-c3cccc(OCC(O)CN4CCc5ccccc5C4)c3)ccc21 (centres unmarked) [Compound D108]

IC50 (Table D-2) [nM] | IC50 [1] [nM] | Structure (SMILES)
101 to 1000 |  | CC(=O)Nc1cccc(-c2cccc(OCC(O)CN3CCc4ccccc4C3)c2)c1 (centres unmarked) [Compound D169]
101 to 1000 |  | Cc1cn(C)c2cc(-c3cccc(OCC(O)CN4CCc5ccccc5C4)c3)ccc12 (centres unmarked) [Compound D187]
101 to 1000 |  | OC(COc1cccc(-c2ccc(C(F)(F)F)cc2C(F)(F)F)c1)CN1CCc2ccccc2C1 (centres unmarked) [Compound D124]
101 to 1000 |  | NC(=O)c1ccc(-c2cccc(OCC(O)CN3CCc4ccccc4C3)c2)cc1 (centres unmarked) [Compound D152]
101 to 1000 |  | OC(COc1cccc(-c2csc3ccccc23)c1)CN1CCc2ccccc2C1 (centres unmarked) [Compound D170]
101 to 1000 |  | OC(COc1cccc(-c2ccc3[nH]ncc3c2)c1)CN1CCc2ccccc2C1 (centres unmarked) [Compound D107]
101 to 1000 |  | OC(COc1cccc(-c2cccnc2F)c1)CN1CCc2ccccc2C1 (centres unmarked) [Compound D139]
101 to 1000 |  | OC(COc1cccc(-c2cc(OC(F)(F)F)ccc2Cl)c1)CN1CCc2ccccc2C1 (centres unmarked) [Compound D200]
 | < 100 | CN(C)CCOc1ccccc1OCC(=O)NC[C@H](O)CN1CCc2ccccc2C1 [Compound A88]
101 to 1000 |  | Cn1cnc2cnc(-c3cccc(OCC(O)CN4CCc5ccccc5C4)c3)nc21 (centres unmarked) [Compound D191]
101 to 1000 |  | Cn1cnc2ccc(-c3cccc(NCC(O)CN4CCc5ccccc5C4)n3)cc21 (centres unmarked) [Compound D117]
 | < 100 | O=C(COc1c(CN2CCOCC2)ccc2cccnc12)NC[C@H](O)CN1CCc2ccccc2C1 [Compound A94]
 | < 100 | CN1C(=O)COc2cccc(OCC(=O)NCC(O)CN3CCc4ccccc4C3)c21 (centres unmarked) [Compound A80]
 | < 100 | O=C(COc1cccc2nccnc12)NCC(O)CN1CCc2ccccc2C1 (centres unmarked) [Compound A92]
 | < 100 | C[C@H](Oc1cccc2cccnc12)C(=O)NC[C@H](O)CN1CCc2ccccc2C1 [Compound A76]
101 to 1000 |  | COc1ccc(-c2cccc(OCC(O)CN3CCc4ccccc4C3)c2)cc1Cl (centres unmarked) [Compound D168]
101 to 1000 |  | OC(COc1cccc(-c2ccc3ncoc3c2)c1)CN1CCc2ccccc2C1 (centres unmarked) [Compound D188]
101 to 1000 |  | NC(=O)c1cccc(-c2cccc(OCC(O)CN3CCc4ccccc4C3)c2)c1 (centres unmarked) [Compound D171]
101 to 1000 |  | O=C(c1cccc(-c2cccc(OCC(O)CN3CCc4ccccc4C3)c2)c1)N1CCCC1 (centres unmarked) [Compound D185]
< 100 |  | Cn1cnc2ccc(-c3cccc(OC[C@H](O)CN4CCc5ccccc5C4)c3)cc21 [Compound D174]
101 to 1000 |  | Cn1cnc2ccc(-c3ccnc(NCC(O)CN4CCc5ccccc5C4)n3)cc21 (centres unmarked) [Compound D119]
< 100 |  | Cn1ncc2ccc(-c3cccc(OCC(O)CN4CCc5ccccc5C4)c3)cc21 (centres unmarked) [Compound D106]
 | < 100 | O=C(COc1ccccc1OCCN1CCOCC1)NC[C@H](O)CN1CCc2ccccc2C1 [Compound A86]
101 to 1000 |  | COc1ccc(Cl)cc1-c1cccc(OCC(O)CN2CCc3ccccc3C2)c1 (centres unmarked) [Compound D134]
